Results as given in US20150051206A1, “COMPOUNDS AND COMPOSITIONS AS C-KIT KINASE INHIBITORS” (IRM LLC, priority 2011, published 2015).

Target: T1, c-kit (Homo sapiens, UniProt P10721)
T1 construct: human Mo7e cells which endogenously express c-kit; endogenous in cells; host or cells: human Mo7e cells (promegakaryocytic leukemia line), stimulated with human recombinant SCF
Assay: Mo7e cell proliferation assay (SCF dependent proliferation)
Assay type: cell-based
Details: Table 2, Mo7e cells stimulated with human recombinant SCF, 48 hours
Procedure: Compounds of Formula (I) and Formula (II) provided herein were assayed to measure their capacity to inhibit c-kit and PDGFR kinases using the appropriate assay described below: c-Kit inhibition was evaluated using the Mo7e cell proliferation assay, and PDGFR inhibition was evaluated using the Rat A10 cell proliferation assay and the Human TG/HA-VSMC cell proliferation assay.
The compounds of Table 1 and Table 2 were tested for inhibition of SCF dependent proliferation using human Mo7e cells which endogenously express c-kit in a 384 well format. […] After 48 hours of incubation at 37° C., cell viability was measured by adding 25 uL of CellTiter Glo (Promega) to the cells and the luminescence was measured by a CLIPR CCD camera (Molecular Devices).
The IC50 value is given as that concentration of the test compound in question that provoke a response halfway between the baseline and maximum responses.

[1] = 20% FBS instead of 1% FBS (values marked *)

T1 sequence (P10721 26-976): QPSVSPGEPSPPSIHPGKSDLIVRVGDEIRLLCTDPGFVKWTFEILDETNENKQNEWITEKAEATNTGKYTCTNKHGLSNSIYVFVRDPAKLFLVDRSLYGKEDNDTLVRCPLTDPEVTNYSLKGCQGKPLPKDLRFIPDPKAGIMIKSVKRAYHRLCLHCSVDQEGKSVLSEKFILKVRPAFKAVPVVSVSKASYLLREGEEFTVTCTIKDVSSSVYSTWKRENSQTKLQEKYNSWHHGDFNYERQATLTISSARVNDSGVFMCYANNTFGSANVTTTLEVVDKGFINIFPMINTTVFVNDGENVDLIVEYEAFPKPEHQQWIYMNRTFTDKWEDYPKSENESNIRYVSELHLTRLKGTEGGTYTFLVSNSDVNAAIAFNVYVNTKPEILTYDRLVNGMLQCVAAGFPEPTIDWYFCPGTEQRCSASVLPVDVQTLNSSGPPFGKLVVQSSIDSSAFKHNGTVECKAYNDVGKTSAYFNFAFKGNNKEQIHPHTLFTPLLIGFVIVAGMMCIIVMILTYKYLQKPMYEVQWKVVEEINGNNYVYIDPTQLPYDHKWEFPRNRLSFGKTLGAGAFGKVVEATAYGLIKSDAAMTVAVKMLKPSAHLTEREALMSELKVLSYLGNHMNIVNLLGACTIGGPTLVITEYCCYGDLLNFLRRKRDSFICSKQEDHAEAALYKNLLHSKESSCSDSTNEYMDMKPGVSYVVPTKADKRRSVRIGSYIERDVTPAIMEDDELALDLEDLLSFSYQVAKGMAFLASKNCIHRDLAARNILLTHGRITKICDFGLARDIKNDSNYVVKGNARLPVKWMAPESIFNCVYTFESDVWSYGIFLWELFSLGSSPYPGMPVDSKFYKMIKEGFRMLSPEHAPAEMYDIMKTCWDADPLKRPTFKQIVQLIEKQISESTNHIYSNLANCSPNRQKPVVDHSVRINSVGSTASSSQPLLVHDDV

Row | IC50 [1] [nM] | IC50 (1% FBS) [nM] | Compound
1 | 173 |  | Cc1ccc(-c2nc(-c3cccc(F)c3)no2)cc1NC(=O)c1cnc2ccccn12 [F36, N-{5-[3-(3-fluorophenyl)-1,2,4-oxadiazol-5-yl]-2-methylphenyl}imidazo[1,2-a]pyridine-3-carboxamide]
2 |  | 101 | Cc1ccc(-c2nc(-c3ccccc3)no2)cc1NC(=O)c1cnc2ccccn12 [F46, N-[2-methyl-5-(3-phenyl-1,2,4-oxadiazol-5-yl)phenyl]imidazo[1,2-a]pyridine-3-carboxamide]
3 | 196 |  | Cc1ccc(-c2noc(-c3ccccc3)n2)cc1NC(=O)c1cnc2ccccn12 [F47, N-[2-methyl-5-(5-phenyl-1,2,4-oxadiazol-3-yl)phenyl]imidazo[1,2-a]pyridine-3-carboxamide]
4 | 850 |  | Cc1ccc(-c2nc(-c3ccc(C)c(NC(=O)c4cnc5ccccn45)c3)no2)cn1 [F50, N-{2-methyl-5-[5-(6-methylpyridin-3-yl)-1,2,4-oxadiazol-3-yl]phenyl}imidazo[1,2-a]pyridine-3-carboxamide]
5 | 179 |  | Cc1ccc(-c2noc(-c3ccccc3N3CCOCC3)n2)cc1NC(=O)c1cnc2ccccn12 [F51, N-(2-methyl-5-{5-[2-(morpholin-4-yl)phenyl]-1,2,4-oxadiazol-3-yl}phenyl)imidazo[1,2-a]pyridine-3-carboxamide]
6 |  | 433 | Cc1ccc(-c2noc(-c3ccccc3N3CCN(C)CC3)n2)cc1NC(=O)c1cnc2ccccn12 [F52, N-(2-methyl-5-{5-[2-(4-methylpiperazin-1-yl)phenyl]-1,2,4-oxadiazol-3-yl}phenyl)imidazo[1,2-a]pyridine-3-carboxamide]
7 |  | 101 | Cc1ccc(-c2noc(-c3cccc(N4CCN(C)CC4)c3)n2)cc1NC(=O)c1cnc2ccccn12 [F53, N-(2-methyl-5-{5-[3-(4-methylpiperazin-1-yl)phenyl]-1,2,4-oxadiazol-3-yl}phenyl)imidazo[1,2-a]pyridine-3-carboxamide]
8 |  | 370 | Cc1ccc(-c2noc(-c3ccc(N4CCN(C)CC4)cc3)n2)cc1NC(=O)c1cnc2ccccn12 [F54, N-(2-methyl-5-{5-[4-(4-methylpiperazin-1-yl)phenyl]-1,2,4-oxadiazol-3-yl}phenyl)imidazo[1,2-a]pyridine-3-carboxamide]
9 | 330 |  | Cc1ccc(-c2noc(-c3cccc(N4CCOCC4)c3)n2)cc1NC(=O)c1cnc2ccccn12 [F55, N-(2-methyl-5-{5-[3-(morpholin-4-yl)phenyl]-1,2,4-oxadiazol-3-yl}phenyl)imidazo[1,2-a]pyridine-3-carboxamide]
10 |  | 1080 | Cc1ccc(-c2noc(-c3ccc(N4CCOCC4)cc3)n2)cc1NC(=O)c1cnc2ccccn12 [F65, N-(2-methyl-5-{5-[4-(morpholin-4-yl)phenyl]-1,2,4-oxadiazol-3-yl}phenyl)imidazo[1,2-a]pyridine-3-carboxamide]
11 |  | > 10000 | Cc1ccc(-c2nc(-c3ccc(F)cc3)no2)cc1NC(=O)c1cnc2ccccn12 [F68]

Second part, the molecule before the results:

Row | Compound | IC50 [1] [nM] | IC50 (1% FBS) [nM]
12 | Cc1ccc(-c2nc(-c3cccnc3OCC(F)(F)F)no2)cc1NC(=O)c1cnc2ccccn12 [F38, N-(2-methyl-5-{3-[2-(2,2,2-trifluoroethoxy)pyridin-3-yl]-1,2,4-oxadiazol-5-yl}phenyl)imidazo[1,2-a]pyridine-3-carboxamide] | 192 | 
13 | Cc1ccc(F)c(-c2noc(-c3ccc(C)c(NC(=O)c4cnc5ccccn45)c3)n2)c1 [F39, N-{5-[3-(2-fluoro-5-methylphenyl)-1,2,4-oxadiazol-5-yl]-2-methylphenyl}imidazo[1,2-a]pyridine-3-carboxamide] | 104 | 
14 | COc1cccc(F)c1-c1noc(-c2ccc(C)c(NC(=O)c3cnc4ccccn34)c2)n1 [F40, N-{5-[3-(2-fluoro-6-methoxyphenyl)-1,2,4-oxadiazol-5-yl]-2-methylphenyl}imidazo[1,2-a]pyridine-3-carboxamide] |  | 596
15 | Cc1ccc(-c2noc(-c3ccccn3)n2)cc1NC(=O)c1cnc2ccccn12 [F42, N-{2-methyl-5-[5-(pyridin-2-yl)-1,2,4-oxadiazol-3-yl]phenyl}imidazo[1,2-a]pyridine-3-carboxamide] |  | 105
16 | Cc1ccc(-c2nc(Cc3ccccc3OC(F)(F)F)no2)cc1NC(=O)c1cnc2ccccn12 [F43, N-[2-methyl-5-(3-{[2-(trifluoromethoxy)phenyl]methyl}-1,2,4-oxadiazol-5-yl)phenyl]imidazo[1,2-a]pyridine-3-carboxamide] | 289 | 
17 | Cc1ccc(-c2nc(-c3cccnc3Cl)no2)cc1NC(=O)c1cnc2ccccn12 [F44, N-{5-[3-(2-chloropyridin-3-yl)-1,2,4-oxadiazol-5-yl]-2-methylphenyl}imidazo[1,2-a]pyridine-3-carboxamide] | 236 | 
18 | COc1ccccc1Cc1noc(-c2ccc(C)c(NC(=O)c3cnc4ccccn34)c2)n1 [F45, N-(5-{3-[(2-methoxyphenyl)methyl]-1,2,4-oxadiazol-5-yl}-2-methylphenyl)imidazo[1,2-a]pyridine-3-carboxamide] | 116 | 
19 | Cc1ccc(-c2noc(-c3ncccn3)n2)cc1NC(=O)c1cnc2ccccn12 [F48, N-{2-methyl-5-[5-(pyrimidin-2-yl)-1,2,4-oxadiazol-3-yl]phenyl}imidazo[1,2-a]pyridine-3-carboxamide] | 815 | 
20 | Cc1ccc(-c2noc(-c3nccn3C)n2)cc1NC(=O)c1cnc2ccccn12 [F49, N-{2-methyl-5-[5-(1-methyl-1H-imidazol-2-yl)-1,2,4-oxadiazol-3-yl]phenyl}imidazo[1,2-a]pyridine-3-carboxamide] |  | 232
21 | Cc1ccc(-c2noc(CCc3nccn3C)n2)cc1NC(=O)c1cnc2ccccn12 [F56, N-(2-methyl-5-{5-[2-(1-methyl-1H-imidazol-2-yl)ethyl]-1,2,4-oxadiazol-3-yl}phenyl)imidazo[1,2-a]pyridine-3-carboxamide] |  | 340
22 | Cc1ccc(-c2noc(CCn3ccnc3)n2)cc1NC(=O)c1cnc2ccccn12 [F57, N-(5-{5-[2-(1H-imidazol-1-yl)ethyl]-1,2,4-oxadiazol-3-yl}-2-methylphenyl)imidazo[1,2-a]pyridine-3-carboxamide] |  | 337
23 | Cc1ccc(-c2noc(CCn3cncn3)n2)cc1NC(=O)c1cnc2ccccn12 [F58, N-(2-methyl-5-{5-[2-(1H-1,2,4-triazol-1-yl)ethyl]-1,2,4-oxadiazol-3-yl}phenyl)imidazo[1,2-a]pyridine-3-carboxamide] |  | 135
24 | Cc1ccc(-c2noc(Cn3cnnn3)n2)cc1NC(=O)c1cnc2ccccn12 [F59, N-{2-methyl-5-[5-(1H-1,2,3,4-tetrazol-1-ylmethyl)-1,2,4-oxadiazol-3-yl]phenyl}imidazo[1,2-a]pyridine-3-carboxamide] |  | 646
25 | Cc1ccc(-c2noc(Cn3ccnc3C)n2)cc1NC(=O)c1cnc2ccccn12 [F60, N-(2-methyl-5-{5-[(2-methyl-1H-imidazol-1-yl)methyl]-1,2,4-oxadiazol-3-yl}phenyl)imidazo[1,2-a]pyridine-3-carboxamide] |  | 445
26 | Cc1ccc(-c2noc(Cn3ccnc3)n2)cc1NC(=O)c1cnc2ccccn12 [F61, N-{5-[5-(1H-imidazol-1-ylmethyl)-1,2,4-oxadiazol-3-yl]-2-methylphenyl}imidazo[1,2-a]pyridine-3-carboxamide] |  | 280
27 | Cc1ccc(-c2noc(Cn3cncn3)n2)cc1NC(=O)c1cnc2ccccn12 [F63, N-{2-methyl-5-[5-(1H-1,2,4-triazol-1-ylmethyl)-1,2,4-oxadiazol-3-yl]phenyl}imidazo[1,2-a]pyridine-3-carboxamide] |  | 269
28 | Cc1ccc(Nc2noc(-c3cccnn3)n2)cc1NC(=O)c1cnc2ccccn12 [F64, N-(2-methyl-5-{[5-(pyridazin-3-yl)-1,2,4-oxadiazol-3-yl]amino}phenyl)imidazo[1,2-a]pyridine-3-carboxamide] |  | 115
29 | Cc1ccc(-c2noc(CCc3nn[nH]n3)n2)cc1NC(=O)c1cnc2ccccn12 [F67] |  | > 10000
30 | Cc1ccc(-c2noc(-c3ccc(C)c(NC(=O)c4cnc5ccccn45)c3)n2)cc1F [F69] |  | > 10000
31 | Cc1ccc(-c2nc(-c3ccncc3)no2)cc1NC(=O)c1cnc2ccccn12 [F70] |  | > 10000
32 | Cc1ccc(-c2nc(-c3cccnc3)no2)cc1NC(=O)c1cnc2ccccn12 [F71] |  | > 10000
33 | Cc1ccc(-c2nc(-c3ccc(OC(F)(F)F)cc3)no2)cc1NC(=O)c1cnc2ccccn12 [F72] |  | > 10000
